Measurements: article PMC8640094, “Diaportones A–C: Three New Metabolites From Endophytic Fungus Diaporthe foeniculina BZM-15” (Frontiers in Chemistry, 2021)
Values after ≈ are worked out from the molar mass of the structure shown.

Legend:
MRSA (JCSC 3063) = assay: Antibacterial assay, broth macrodilution, MRSA; assay type: cell-based; settings: Staphylococcus aureus
Experimental: Antibacterial activity of all compounds against MRSA (JCSC 3063) and E. coli (ATCC 8739) was tested by the broth […] method on 96-well plates according to the CLSI recommendation ([Li et al., 2014]).

SF-268 (CNS cancer) = assay: MTT cytotoxicity assay, SF-268 cells; assay type: cell-based, human; settings: Homo sapiens
Experimental: (§1) The cytotoxicity of all compounds against three human tumor cell lines, SF-268 (CNS cancer), MCF-7 (breast cancer), and HepG2 (hepatoma cancer), and normal cell line LX-2 was tested using the MTT assay. Adriamycin was used as a positive control. All cells were seeded into 96-well plates at 5 × 10^4 cells/ml and incubated at 37°C under a 5% CO2 atmosphere for 24 h. Then, the tested compounds were added. After 72 h, MTT solution was added into each well, which was further incubated. The cell-free supernatant was removed and formazan crystals were subsequently dissolved in DMSO. Optical density (OD) was recorded at 490 nm on a microplate reader to calculate the IC50 values.

MCF-7 (breast cancer) = assay: MTT cytotoxicity assay, MCF-7 cells; assay type: cell-based, human; settings: Homo sapiens
Experimental: as §1, with “Adriamycin was used as a positive control.” left out

HepG2 (hepatoma cancer) = assay: MTT cytotoxicity assay, HepG2 cells; assay type: cell-based, human; settings: Homo sapiens
Experimental: as §1

normal cell line LX-2 = assay: MTT cytotoxicity assay, normal cell line LX-2; assay type: cell-based
Experimental: as §1, with “Adriamycin was used as a positive control.” left out

[1] = test system: three human cancer cell lines (SF-268, MCF-7, and HepG2); assay: MTT cytotoxicity, summary over three human cancer cell lines; assay type: cell-based
Experimental: as §1

## CN[C@H](CC(C)C)C(=O)N[C@H]1C(=O)N[C@@H](CC(N)=O)C(=O)N[C@H]2C(=O)N[C@H]3C(=O)N[C@H](C(=O)N[C@H](C(=O)O)c4cc(O)cc(O)c4-c4cc3ccc4O)[C@H](O)c3ccc(c(Cl)c3)Oc3cc2cc(c3O[C@@H]2O[C@H](CO)[C@@H](O)[C@H](O)[C@H]2O[C@H]2C[C@](C)(N)[C@H](O)[C@H](C)O2)Oc2ccc(cc2Cl)[C@H]1O [Vancomycin]
MRSA (JCSC 3063)
  MIC: 1.25 µg/mL (≈ 0.863 µM)

## CC(C)[C@@H](C)C=C[C@@H](C)[C@H]1CC[C@@]2(O)C3=CC(=O)C4=CC(=O)CC[C@]4(C)[C@H]3CC[C@]12C [compound 8, 14α-hydroxyergosta-4,7,22-triene-3,6-dione]
SF-268 (CNS cancer); SF-268, 72 h, SF268 cells, c 1.00 μM, triplicate values, read-out: cell inhibition
  inhibition at 1 µM: 21.4%
SF-268 (CNS cancer); SF-268, 72 h, SF268 cells, c 2.00 μM, triplicate values, read-out: cell inhibition
  inhibition at 2 µM: 30.2%
SF-268 (CNS cancer); SF-268, 72 h, SF268 cells, c 4.00 μM, triplicate values, read-out: cell inhibition
  inhibition at 4 µM: 44.3%
SF-268 (CNS cancer); SF-268, 72 h, SF268 cells, c 8.00 μM, triplicate values, read-out: cell inhibition
  inhibition at 8 µM: 46.8%
SF-268 (CNS cancer); SF-268, 72 h, SF268 cells, c 16.00 μM, triplicate values, read-out: cell inhibition
  inhibition at 16 µM: 81.4%
SF-268 (CNS cancer); SF-268, 72 h, SF268 cells, c 32.00 μM, triplicate values, read-out: cell inhibition
  inhibition at 32 µM: 85.3%
SF-268 (CNS cancer); SF-268, 72 h, SF268 cells, c 64.00 μM, triplicate values, read-out: cell inhibition
  inhibition at 64 µM: 92.4%
SF-268 (CNS cancer); SF-268, 72 h, SF268 cells, c 128.00 μM, triplicate values, read-out: cell inhibition
  inhibition at 128 µM: 97.3%
SF-268 (CNS cancer); SF-268, MTT, 72 h, mean ± SD (n = 3), read-out: IC50 SF268
  IC50: 8.3 ± 0.5 µM
MCF-7 (breast cancer); MCF7, 72 h, MCF-7, c 1.00 μM, three replicates, read-out: cell inhibition
  inhibition at 1 µM: 21.5%
MCF-7 (breast cancer); MCF7, 72 h, MCF-7, c 2.00 μM, three replicates, read-out: cell inhibition
  inhibition at 2 µM: 26.3%
MCF-7 (breast cancer); MCF7, 72 h, MCF-7, c 4.00 μM, three replicates, read-out: cell inhibition
  inhibition at 4 µM: 35.6%
MCF-7 (breast cancer); MCF7, 72 h, MCF-7, c 8.00 μM, three replicates, read-out: cell inhibition
  inhibition at 8 µM: 47.3%
MCF-7 (breast cancer); MCF7, 72 h, MCF-7, c 16.00 μM, three replicates, read-out: cell inhibition
  inhibition at 16 µM: 72.4%
MCF-7 (breast cancer); MCF7, 72 h, MCF-7, c 32.00 μM, three replicates, read-out: cell inhibition
  inhibition at 32 µM: 89.1%
MCF-7 (breast cancer); MCF7, 72 h, MCF-7, c 64.00 μM, three replicates, read-out: cell inhibition
  inhibition at 64 µM: 97.3%
MCF-7 (breast cancer); MCF7, 72 h, MCF-7, c 128.00 μM, three replicates, read-out: cell inhibition
  inhibition at 128 µM: 96.2%
MCF-7 (breast cancer); MCF7, MTT, 72 h, mean ± SD (n = 3)
  IC50: 11.4 ± 0.3 µM
HepG2 (hepatoma cancer); HepG2, 72 h, HepG2, c 1.00 μM, three replicates, read-out: cell inhibition
  inhibition at 1 µM: 20.3%
HepG2 (hepatoma cancer); HepG2, 72 h, HepG2, c 2.00 μM, three replicates, read-out: cell inhibition
  inhibition at 2 µM: 27.1%
HepG2 (hepatoma cancer); HepG2, 72 h, HepG2, c 4.00 μM, three replicates, read-out: cell inhibition
  inhibition at 4 µM: 34.1%
HepG2 (hepatoma cancer); HepG2, 72 h, HepG2, c 8.00 μM, three replicates, read-out: cell inhibition
  inhibition at 8 µM: 46.7%
HepG2 (hepatoma cancer); HepG2, 72 h, HepG2, c 16.00 μM, three replicates, read-out: cell inhibition
  inhibition at 16 µM: 58.6%
HepG2 (hepatoma cancer); HepG2, 72 h, HepG2, c 32.00 μM, three replicates, read-out: cell inhibition
  inhibition at 32 µM: 78.4%
HepG2 (hepatoma cancer); HepG2, 72 h, HepG2, c 64.00 μM, three replicates, read-out: cell inhibition
  inhibition at 64 µM: 89%
HepG2 (hepatoma cancer); HepG2, 72 h, HepG2, c 128.00 μM, three replicates, read-out: cell inhibition
  inhibition at 128 µM: 94.3%
HepG2 (hepatoma cancer); HepG2, MTT, 72 h, mean ± SD (n = 3)
  IC50: 15.8 ± 1.3 µM
Normal cell line LX-2; 72 h, LX-2, c 1.00 μM, three replicates
  inhibition at 1 µM: 13.6%
Normal cell line LX-2; 72 h, LX-2, c 2.00 μM, three replicates
  inhibition at 2 µM: 19.2%
Normal cell line LX-2; 72 h, LX-2, c 4.00 μM, three replicates
  inhibition at 4 µM: 28%
Normal cell line LX-2; 72 h, LX-2, c 8.00 μM, three replicates
  inhibition at 8 µM: 35.9%
Normal cell line LX-2; 72 h, LX-2, c 16.00 μM, three replicates
  inhibition at 16 µM: 41.6%
Normal cell line LX-2; 72 h, LX-2, c 32.00 μM, three replicates
  inhibition at 32 µM: 48.5%
Normal cell line LX-2; 72 h, LX-2, c 64.00 μM, three replicates
  inhibition at 64 µM: 73.4%
Normal cell line LX-2; 72 h, LX-2, c 128.00 μM, three replicates
  inhibition at 128 µM: 90.3%
Normal cell line LX-2; MTT, 72 h, mean ± SD (n = 3)
  IC50: > 40 µM
Normal cell line LX-2; in words
  activity on the normal cell line LX-2: not active
[1]
  cell inhibition against three human cancer cell lines, in words: good cell inhibition
[1]; Homo sapiens, read-out: IC50 values, range over three cell lines
  IC50: 3.6 to 15.8 µM
